These results are taken from patent publication US8232270B2, “Bivalent (−)-meptazinol compounds and/or their salts, and their preparation and futilization” (priority 2006, dated 2012).

Broadly, the IC50 is the midpoint of a concentration-inhibition curve. The term inhibition denotes how much of the control response was suppressed.

Where “and” joins values, the source holds several entries; their conditions need not be identical. Identical values can stand only once. Counter-ions that a name gives are not always drawn.

The target in experiment [1] is T1, mice brain AChE (Mus musculus, UniProt P21836).
T1 construct: Mice brain homogenate prepared in saline was used as a source of AChE; from tissue; host or cells: mouse brain homogenate
T1 sequence (P21836 32-614): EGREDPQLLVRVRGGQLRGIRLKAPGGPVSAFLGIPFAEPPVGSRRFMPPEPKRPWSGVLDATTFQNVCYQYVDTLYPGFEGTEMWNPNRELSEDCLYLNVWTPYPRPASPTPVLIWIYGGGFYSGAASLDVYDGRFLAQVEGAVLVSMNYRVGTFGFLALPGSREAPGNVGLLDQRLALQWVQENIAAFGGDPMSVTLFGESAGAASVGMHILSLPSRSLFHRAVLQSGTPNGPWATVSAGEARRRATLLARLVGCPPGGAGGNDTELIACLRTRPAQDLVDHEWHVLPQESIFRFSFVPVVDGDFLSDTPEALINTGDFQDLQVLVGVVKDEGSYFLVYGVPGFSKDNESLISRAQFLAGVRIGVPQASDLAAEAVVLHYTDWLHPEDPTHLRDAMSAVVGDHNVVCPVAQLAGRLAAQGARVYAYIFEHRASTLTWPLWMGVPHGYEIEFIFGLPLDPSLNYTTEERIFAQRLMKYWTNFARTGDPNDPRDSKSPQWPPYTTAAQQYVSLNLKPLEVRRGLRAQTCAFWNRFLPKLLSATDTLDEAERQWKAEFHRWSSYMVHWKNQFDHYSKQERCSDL
The experiment in a line: AChE inhibition, Ellman spectrophotometric assay, mice brain homogenate. Format: biochemical. As to conditions: for IC50: mean ± SEM, at least three measures, hydrochlorides, 20 min preincubation at 37° C.; for AChE selectivity: mice serum BChE versus mice brain AChE IC50. As to the method:
(§1) AChE inhibiting activities were measured by a spectrophotometric assay developed by Ellman et al. It was based on the fact that AChE catalyzes the hydrolysis of acetylcholine, releasing choline and acetic acid. In this assay, acetylthiocholine (AChSC) is hydrolyzed by the enzyme, releasing thiocholine containing a sulfhydrylic group able to react with color indicating reagent. Yellowish products were measured spectrophotometrically, the amount of which reflects the activity of AChE. All the procedures were operated according to the instruction of the AChE reagent kit produced by Nanjing Jiancheng Bio-engineering Institute. Mice brain homogenate prepared in saline was used as a source of AChE; mice serum was the source of BChE.
(§2) After incubation for 20 min at 37° C., acetylthiocholine iodide (300 μL of 0.05 mM water solution) was added as the substrate, and AChE activity was determined by UV spectrophotometry from the absorbance changes at […] for 3 min at 25° C. […] BChE inhibitory activity determinations were similarly carried out using butyrylthiocholine iodide (0.05 mM) as the substrate. Results are reported as the means ±SEM of IC50 obtained from at least three independent measures.

For experiment [2], the target named is T2, AChE-induced Aβ (1-40) aggregation (human recombinant AChE) (Homo sapiens, UniProt P22303).
T2 construct: purchased Sigma-Aldrich
The experiment in a line: Inhibition of AChE-induced Aβ aggregation, thioflavin T fluorescence. Format: biochemical. To be noted: for inhibition at 100 µM: inhibitor 100 μM, read-out: Inhibition (%) 100 μM ± SEM; for inhibition at 400 µM: read-out: Inhibition (%) 400 μM ± SEM; for IC50: extrapolated from inhibition curves, read-out: IC50 ± SEM, AChE-induced Aβ aggregation; for inhibition of AChE-induced Aβ aggregation, factor compared with propidium: relative to propidium. As to the method: Aliquots of 2 μL Aβ (1-40) peptide (Biosource), lyophilized from 2 mg/mL HFIP solution and dissolved in DMSO, were incubated for 48 h at room temperature in 0.215 M sodium phosphate buffer (pH 8.0) at a concentration of 230 μM. For coincubation experiments, aliquots (16 μL) of human recombinant AChE (Sigma-Aldrich) (final concentration of 2.3 μM) and AChE in the presence of 2 μL of the tested inhibitors were added. Each assay was run in duplicate. To quantify amyloid fibril formation, the thioflavin T fluorescence method was then applied.
Fluorescence was monitored with excitation at 446 nm and emission at 490 nm. The percent inhibition of the AChE-induced aggregation due to the presence of increasing concentrations of the inhibitor was calculated by the following expression: 100−(IFi/IFo×100), where IFi and IFo were the fluorescence intensities obtained for Aβ plus AChE in the presence and in the absence of inhibitor, respectively, after subtracting the fluorescence of respective blanks. Inhibition curves and linear regression parameters were obtained for each compound, and the IC50 was extrapolated.

The target of another experiment is T3, mice serum BChE (Mus musculus, UniProt Q03311).
T3 construct: mice serum was the source of BChE; from tissue; host or cells: mouse serum
The experiment in a line: BChE inhibition, Ellman spectrophotometric assay, mice serum. The experiment is classed as biochemical. As to conditions: for IC50: mean ± SEM, at least three measures, butyrylthiocholine iodide substrate. The protocol:
as §1
as §2, with “The AChE activity was determined in a reaction mixture containing 200 μL of a solution of AChE (0.415 U/mL in 0.1 M phosphate buffer, pH 8.0), 300 μL of a solution of 5,5′-dithio-bis(2-nitrobenzoic) acid (3.3 mM DTNB in 0.1 M phosphate buffered solution, pH 7.0, containing NaHCO3 6 mM), and 30 μL of a solution of the inhibitor (six to seven concentrations). After” for “After”
In general terms: DTNB colorimetry detects thiols as they appear.

Experiment [3] deals with T1, mice brain AChE. To be noted: background statement; cited from earlier work.
The mark [4] stands for this setting: inhibitor 400 μM, Aβ 230 μM, AChE 2.3 μM, 48 h.
[5] abbreviates: relative to (−)-MEP (hydrochloride).

T2 sequence (P22303 32-614): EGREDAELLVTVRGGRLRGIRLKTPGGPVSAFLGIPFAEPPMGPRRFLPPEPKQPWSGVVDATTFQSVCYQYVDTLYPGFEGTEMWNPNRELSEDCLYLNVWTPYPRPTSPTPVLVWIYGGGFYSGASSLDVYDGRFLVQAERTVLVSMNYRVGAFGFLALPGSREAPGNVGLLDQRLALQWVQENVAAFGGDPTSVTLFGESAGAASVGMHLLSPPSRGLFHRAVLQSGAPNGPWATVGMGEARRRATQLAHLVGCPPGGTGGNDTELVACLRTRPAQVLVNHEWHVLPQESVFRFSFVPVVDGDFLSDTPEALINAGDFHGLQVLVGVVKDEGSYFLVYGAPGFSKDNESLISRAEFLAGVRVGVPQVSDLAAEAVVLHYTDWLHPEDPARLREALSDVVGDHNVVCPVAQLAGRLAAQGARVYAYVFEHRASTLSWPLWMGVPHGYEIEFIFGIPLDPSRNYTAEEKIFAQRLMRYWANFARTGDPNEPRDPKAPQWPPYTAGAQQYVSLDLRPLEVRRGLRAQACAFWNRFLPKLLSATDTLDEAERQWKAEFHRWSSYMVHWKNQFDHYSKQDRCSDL
T3 sequence (Q03311 30-603): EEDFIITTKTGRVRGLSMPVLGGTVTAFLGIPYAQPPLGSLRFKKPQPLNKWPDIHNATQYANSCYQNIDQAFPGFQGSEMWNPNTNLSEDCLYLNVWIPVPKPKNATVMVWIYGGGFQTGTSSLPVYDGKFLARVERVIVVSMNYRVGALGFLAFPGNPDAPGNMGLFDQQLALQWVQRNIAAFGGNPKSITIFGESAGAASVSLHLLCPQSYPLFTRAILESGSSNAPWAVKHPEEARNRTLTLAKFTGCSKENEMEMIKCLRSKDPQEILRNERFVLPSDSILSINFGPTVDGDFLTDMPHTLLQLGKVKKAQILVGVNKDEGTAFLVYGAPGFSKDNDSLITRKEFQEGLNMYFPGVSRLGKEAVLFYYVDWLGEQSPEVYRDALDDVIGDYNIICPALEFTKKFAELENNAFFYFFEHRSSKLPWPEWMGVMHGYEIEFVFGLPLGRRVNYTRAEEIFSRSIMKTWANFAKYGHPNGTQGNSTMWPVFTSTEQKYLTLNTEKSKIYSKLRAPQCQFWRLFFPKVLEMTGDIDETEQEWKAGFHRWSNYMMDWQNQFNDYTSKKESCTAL

As to `CCC1(c2cccc(O)c2)CCCCN(C)C1` (single isomer, unassigned; (-)) [(−)-meptazinol], on mice brain AChE [1], the IC50 stood at 41000 ± 14000 nM and the AChE selectivity is 0.37. For the same molecule, in experiment [2] (setting [4]), the “Inhibition (%) 400 μM ± SEM” value was determined as 0%. Further, at mice serum BChE, the IC50 amounted to 15000 ± 4000 nM. On mice brain AChE [3], the “mice brain AChE inhibition test, result in words” value is given as “potent AChE inhibitor”.
On mice brain AChE [1], `CC[C@@]1(c2cccc(O)c2)CCCCN(CCN2CCCC[C@@](CC)(c3cccc(O)c3)C2)C1` [(A = CH2, n = 2)] yielded a half-maximal inhibitory concentration (IC50) of 43000 ± 20000 nM and an AChE selectivity of 0.0029. For the same molecule, 125 ± 9 nM corresponded to half-maximal inhibition at mice serum BChE (IC50).
In the case of `CC[C@@]1(c2cccc(O)c2)CCCCN(CCCN2CCCC[C@@](CC)(c3cccc(O)c3)C2)C1` [(A = CH2, n = 3)], at mice brain AChE [1], it took 42000 ± 14000 nM to reach half-maximal inhibition (IC50) and the AChE selectivity came out at 0.0031. This molecule displayed an IC50 on mice serum BChE of 132 ± 51 nM.
On the same counts, the results for `CC[C@@]1(c2cccc(O)c2)CCCCN(CCCCN2CCCC[C@@](CC)(c3cccc(O)c3)C2)C1` [(A = CH2, n = 4), N,N′-(1′,4′-Butylene)-bis-(−)-nor-MEP Hydrochloride] are 21400 ± 7600 nM, 0.0049 and 104 ± 29 nM.
In the same order, the values of `CC[C@@]1(c2cccc(O)c2)CCCCN(CCCCCN2CCCC[C@@](CC)(c3cccc(O)c3)C2)C1` [(A = CH2, n = 5)] are 4000 ± 1000 nM, 0.048 and 192 ± 41 nM.
On the same counts, the results for `CC[C@@]1(c2cccc(O)c2)CCCCN(CCCCCCN2CCCC[C@@](CC)(c3cccc(O)c3)C2)C1` [(A = CH2, n = 6)] are 1220 ± 20 nM, 0.098 and 119 ± 20 nM.
Consider `CC[C@@]1(c2cccc(O)c2)CCCCN(CCCCCCCN2CCCC[C@@](CC)(c3cccc(O)c3)C2)C1` [(A = CH2, n = 7)], for which, on mice brain AChE [1], the concentration for half-maximal inhibition (IC50) worked out at 270 ± 70 nM and the AChE selectivity came out at 0.38. At mice serum BChE, this molecule came in with an IC50 of 102 ± 19 nM.
As for `CC[C@@]1(c2cccc(O)c2)CCCCN(CCCCCCCCN2CCCC[C@@](CC)(c3cccc(O)c3)C2)C1` [(A = CH2, n = 8)], the figures for the IC50 on mice brain AChE [1] and on mice serum BChE were 79 ± 19 nM and 63 ± 8 nM, respectively. Moreover, the AChE selectivity at mice brain AChE [1] came out at 0.80. Moreover, the inhibition at 100 µM in experiment [2] (Aβ 230 μM, AChE 2.3 μM, 48 h) worked out at 0%. The inhibition at 400 µM in experiment [2] (setting [4]) was found to be 0.15 ± 0.2%.
As to `CC[C@@]1(c2cccc(O)c2)CCCCN(CCCCCCCCCN2CCCC[C@@](CC)(c3cccc(O)c3)C2)C1` [(A = CH2, n = 9), N,N′-(1′,9′-Nonylene)-bis-(−)-nor-MEP Hydrochloride], on mice brain AChE [1], 3.9 nM corresponded to half-maximal inhibition (IC50) and the AChE selectivity is on record as 2.6. In addition, the “selectivity for AChE, times that of (−)-MEP” value on mice brain AChE [1] (relative to (−)-MEP) amounted to 7 times. In addition, the “fold increase in inhibiting mice brain AChE compared with (−)-MEP” value on mice brain AChE [1] (setting [5]) was found to be 10000 fold. In addition, at mice brain AChE [1] (relative to rivastigmine), the “fold increase in inhibiting mice brain AChE compared with rivastigmine” value came out at 1400 fold and the “selectivity for AChE, times that of rivastigmine” value stood at 9 times. Further, in experiment [2], the IC50 is 79000 nM and 79400 nM; the “inhibition of AChE-induced Aβ aggregation, factor compared with propidium” value is listed as approximately 2 times. Besides, in experiment [2] (Aβ 230 μM, AChE 2.3 μM, 48 h), the inhibition at 100 µM was 74.4 ± 4.3%. Further, the inhibition at 400 µM in experiment [2] (setting [4]) came out at 91.7 ± 3.6%. The same molecule displayed a half-maximal inhibitory concentration (IC50) against mice serum BChE of 10 nM. Further, the “BChE inhibition, times more potent than (−)-MEP” value on mice serum BChE (setting [5]) worked out at 1500 times. Moreover, the “BChE inhibition, times more potent than rivastigmine” value at mice serum BChE (relative to rivastigmine) is recorded as 150 times.
At mice brain AChE [1], `CC[C@@]1(c2cccc(O)c2)CCCCN(CCCCCCCCCCN2CCCC[C@@](CC)(c3cccc(O)c3)C2)C1` [(A = CH2, n = 10)] yielded an IC50 of 9.5 ± 4.5 nM and an AChE selectivity of 1.8. In experiment [2], the IC50 is 83000 nM and 83400 nM; the “inhibition of AChE-induced Aβ aggregation, factor compared with propidium” value was approximately 2 times. Besides, in experiment [2] (Aβ 230 μM, AChE 2.3 μM, 48 h), the inhibition at 100 µM was 66.6 ± 1.7%. In addition, the inhibition at 400 µM in experiment [2] (setting [4]) was 81.8 ± 1.2%. On mice serum BChE, this molecule registered a half-maximal inhibitory concentration (IC50) of 17 ± 6 nM.
On mice brain AChE [1], `CC[C@@]1(c2cccc(O)c2)CCCCN(CCCCCCCCCCCN2CCCC[C@@](CC)(c3cccc(O)c3)C2)C1` [(A = CH2, n = 11)] came in with an IC50 of 24 ± 8 nM and an AChE selectivity of 3.1. Also, half-maximal inhibition on mice serum BChE (IC50) was put at 74 ± 11 nM.
On mice brain AChE [1], `CC[C@@]1(c2cccc(O)c2)CCCCN(CCCCCCCCCCCCN2CCCC[C@@](CC)(c3cccc(O)c3)C2)C1` [(A = CH2, n = 12)] returned an IC50 of 42 ± 20 nM and an AChE selectivity of 2.4. Besides, the IC50 against mice serum BChE is 100 ± 55 nM.
With `CC[N+](C)(CC)CCC[n+]1c(-c2ccccc2)c2cc(N)ccc2c2ccc(N)cc21` [Propidium iodine, reference compound], in experiment [2] (Aβ 230 μM, AChE 2.3 μM, 48 h), the inhibition at 100 µM worked out at 16.7 ± 4.4%. The inhibition at 400 µM in experiment [2] (setting [4]) is 79.2 ± 5.9%.
